From ChEMBL document CHEMBL1649326, “First report of the multidrug resistance gene cfr and the phenicol resistance gene fexA in a Bacillus strain from swine feces” (2010) come the findings set out here.

What is called MIC is the least concentration at which growth counts as inhibited. Read a low MIC as a more susceptible organism.

In brackets after ≈: the same amount, converted by molar mass.

Test [1] deals with Staphylococcus aureus. Put plainly: Antimicrobial activity against Staphylococcus aureus RN4220. Format: functional.
Test [2] can be described thus: (§1) Antimicrobial activity against Bacillus sp. BS-01 expressing multiple resistance gene cfr and […] resistance gene fexA obtained from swine feces. Format: functional. The following applies: Bacillus sp. BS-01, Feces.
Test [3] relates to Staphylococcus aureus. Put plainly: Antimicrobial activity against Staphylococcus aureus RN4220 harboring pBS-01multiple resistance gene cfr and phenolic resistance gene fexA obtained from swine feces.
Test [4] concerns Bacillus sp. BS-01. Described as §1. The format is functional.

Consider `O=C(N[C@H](CO)[C@H](O)c1ccc([N+](=O)[O-])cc1)C(Cl)Cl` [CHLORAMPHENICOL], for which the minimal inhibitory concentration (MIC) in test [1] was 16 µg/mL (≈ 49.5 µM); in test [2], 32 µg/mL (≈ 99 µM); in test [3], 4 µg/mL (≈ 12.4 µM).
Consider `O=C(O)c1cn(C2CC2)c2cc(N3CCNCC3)c(F)cc2c1=O` [CIPROFLOXACIN], for which the minimal inhibitory concentration (MIC) in test [1] came to 0.5 µg/mL (≈ 1.51 µM); in test [2] it was 8 µg/mL (≈ 24.1 µM); in test [3] it was 0.5 µg/mL (≈ 1.51 µM).
As to `CCC[C@@H]1C[C@@H](C(=O)N[C@@H]([C@H]2O[C@H](SC)[C@H](O)[C@@H](O)[C@H]2O)[C@H](C)Cl)N(C)C1` [CLINDAMYCIN], the MIC in test [1] is greater than 32 µg/mL; in test [2] it was greater than 32 µg/mL; in test [3], less than 0.625 µg/mL.
On to `CC[C@H]1OC(=O)[C@H](C)[C@@H](O[C@H]2C[C@@](C)(OC)[C@@H](O)[C@H](C)O2)[C@H](C)[C@@H](O[C@@H]2O[C@H](C)C[C@H](N(C)C)[C@H]2O)[C@](C)(O)C[C@@H](C)C(=O)[C@H](C)[C@@H](O)[C@]1(C)O` [ERYTHROMYCIN], for which the values for the minimum inhibitory concentration (MIC) in test [1], in test [2] and in test [3] were greater than 64 µg/mL, greater than 64 µg/mL and 0.25 µg/mL (≈ 0.341 µM), respectively.
Regarding `CS(=O)(=O)c1ccc([C@@H](O)[C@@H](CF)NC(=O)C(Cl)Cl)cc1` [FLORFENICOL], the results for the minimum inhibitory concentration (MIC) in test [1], in test [2] and in test [3] were 16 µg/mL (≈ 44.7 µM), 32 µg/mL (≈ 89.3 µM) and 4 µg/mL (≈ 11.2 µM), respectively.
On to `CC(=O)NC[C@H]1CN(c2ccc(N3CCOCC3)c(F)c2)C(=O)O1` [LINEZOLID], for which the minimal inhibitory concentration (MIC) in test [2] was 2 µg/mL (≈ 5.93 µM); in test [3] it was 1 µg/mL (≈ 2.96 µM).
For `CN(C)[C@@H]1C(O)=C(C(N)=O)C(=O)[C@@]2(O)C(O)=C3C(=O)c4c(O)cccc4[C@@](C)(O)[C@H]3C[C@@H]12` [TETRACYCLINE], the values for the MIC in test [1], in test [2] and in test [3] were 1 µg/mL (≈ 2.25 µM), 32 µg/mL (≈ 72 µM) and 1 µg/mL (≈ 2.25 µM), respectively.
As for `C=C[C@]1(C)C[C@@H](OC(=O)CSCCN(CC)CC)[C@]2(C)[C@H](C)CC[C@]3(CCC(=O)[C@H]32)[C@@H](C)[C@@H]1O` [TIAMULIN], the MIC in test [1] is 32 µg/mL (≈ 64.8 µM); in test [2] it was 256 µg/mL (≈ 518 µM); in test [3], less than 0.5 µg/mL.
Regarding `CN[C@H](CC(C)C)C(=O)N[C@H]1C(=O)N[C@@H](CC(N)=O)C(=O)N[C@H]2C(=O)N[C@H]3C(=O)N[C@H](C(=O)N[C@H](C(=O)O)c4cc(O)cc(O)c4-c4cc3ccc4O)[C@H](O)c3ccc(c(Cl)c3)Oc3cc2cc(c3O[C@@H]2O[C@H](CO)[C@@H](O)[C@H](O)[C@H]2O[C@H]2C[C@](C)(N)[C@H](O)[C@H](C)O2)Oc2ccc(cc2Cl)[C@H]1O` [VANCOMYCIN], in test [2], it took 0.5 µg/mL (≈ 0.345 µM) to inhibit growth (MIC).
On to GENTAMICIN, for which the MIC in test [1] amounted to 0.25 µg/mL; in test [4], 8 µg/mL.
